Calls of active or inactive are those of the source.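 How the source made its calls: active means a fitted half-maximal concentration EC50 for the rise in nuclear signal no higher than ten times the top dose tested; inconclusive means flat fit with activity between 30% and 70%, or unusable fit; inactive means EC50 beyond ten times the top dose.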
biological target: Hypoxia-inducible factor 1-alpha (Homo sapiens) (UniProt Q16665); test: activators of HIF1alpha nuclear accumulation, confirmation, imaging, fluorescence, U2OS GFP-HIF1alpha (AID 434951); details: U2OS GFP-HIF1alpha nuclear intensity, high-content imaging
Sequence (Q16665 whole entry, looked up): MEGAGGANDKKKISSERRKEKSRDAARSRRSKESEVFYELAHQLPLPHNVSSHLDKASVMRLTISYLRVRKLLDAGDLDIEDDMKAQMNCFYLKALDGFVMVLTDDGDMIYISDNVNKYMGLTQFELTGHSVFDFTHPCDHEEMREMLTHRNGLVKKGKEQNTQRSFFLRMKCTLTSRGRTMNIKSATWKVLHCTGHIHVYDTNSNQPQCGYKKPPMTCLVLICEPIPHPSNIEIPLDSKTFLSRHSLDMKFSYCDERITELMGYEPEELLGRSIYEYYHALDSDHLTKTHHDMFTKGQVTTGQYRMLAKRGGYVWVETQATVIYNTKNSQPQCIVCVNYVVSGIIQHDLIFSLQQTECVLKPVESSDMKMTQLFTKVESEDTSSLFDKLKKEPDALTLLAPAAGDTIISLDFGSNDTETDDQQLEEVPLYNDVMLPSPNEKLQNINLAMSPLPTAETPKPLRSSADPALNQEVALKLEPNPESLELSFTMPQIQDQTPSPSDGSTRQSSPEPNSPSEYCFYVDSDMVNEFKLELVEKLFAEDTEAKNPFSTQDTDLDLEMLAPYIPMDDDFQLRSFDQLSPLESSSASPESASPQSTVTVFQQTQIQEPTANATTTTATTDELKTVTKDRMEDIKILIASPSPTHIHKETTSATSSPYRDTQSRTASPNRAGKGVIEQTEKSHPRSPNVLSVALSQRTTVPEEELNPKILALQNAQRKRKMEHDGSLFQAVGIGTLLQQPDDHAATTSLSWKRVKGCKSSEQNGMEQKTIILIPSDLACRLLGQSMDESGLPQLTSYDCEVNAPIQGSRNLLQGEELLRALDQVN

Compound	EC50
Cc1ccc(Nc2nnc(-c3ccccc3N)o2)cc1C	> 35 µM (inactive)
Cn1nc(C(=O)NCCCN2CCCCC2)c2c1-c1ccccc1S(=O)(=O)C2	> 35 µM (inactive)
O=C(N/N=C/c1cc(O)ccc1Br)c1cccnc1	> 35 µM (inactive)
Cc1ncc(CO)c(/C=N/Nc2ccc(C(F)(F)F)cn2)c1O	17.8 µM
CSc1nc(C)cc(C)c1C#N	> 35 µM (inactive)
CCCCc1ccc(NC(=O)C2CCN(S(C)(=O)=O)CC2)cc1	> 35 µM (inactive)
CCN(CC)CCNC1=CC(=O)OC12CCCCC2	> 35 µM (inactive)
O=C(N/N=C/c1cc(Br)ccc1O)c1cccc(N2CCCC2=O)c1	13.5 µM
CNc1c2c(nn1C)CCCC2	> 35 µM (inactive)
CNNC(=O)C(C)NC(=O)c1ccc(Br)cc1 (stereo not drawn)	> 35 µM (inactive)
Cc1ccc(C)c(CNS(=O)(=O)c2ccc3c(c2)C(C)(C)C(=O)N3C)c1	> 35 µM (inactive)
Clc1ccc(CSc2ccc(-c3ccccn3)nn2)cc1	9.44 µM
CCCn1c(SCC(=O)N2CCc3ccccc3C2)nc2c1c(=O)n(C)c(=O)n2C	> 35 µM (inactive)
COc1ccc(C(NC(=O)c2cccnc2)c2cc(Cl)c3cccnc3c2O)cc1OC (stereo not drawn)	7.09 µM
CCCC(=O)NC(c1ccc(C(C)C)cc1)c1ccc2cccnc2c1O (stereo not drawn)	2.1 µM
CCCCNC(=O)c1cc(-c2ccc(F)cc2)on1	9.23 µM
Oc1cccc(C(Nc2nccs2)c2ccc3cccnc3c2O)c1 (stereo not drawn)	6.93 µM
Cc1ccc(OC(C)C(=O)N2CC(=O)Nc3ccccc32)cc1 (stereo not drawn)	> 35 µM (inactive)
CCOc1ccccc1CN1CCN(S(C)(=O)=O)CC1	> 35 µM (inactive)
COc1ccc(Cc2nnc(SCC(=O)NC3CCCCC3)n2C)cc1	> 35 µM (inactive)
CCCn1c(SCC(=O)Nc2ccccc2CC)nnc1C(C)C	> 35 µM (inactive)
CCN(CC)S(=O)(=O)c1cccc(C(=O)N/N=C(\C)c2ccc(O)cc2O)c1	2.12 µM
Cc1ccccc1NC(=O)c1ccccc1O	> 35 µM (inactive)
O=C(NCCCN1CCN(c2ccccc2F)CC1)Nc1ccccc1[N+](=O)[O-]	> 35 µM (inactive)
CC(=O)NC(c1ccc(C)cc1)c1cc(Cl)c2cccnc2c1O (stereo not drawn)	16.6 µM
CCOC(=O)c1c(NC(=O)CCC(=O)O)sc2c1CCCCC2	> 35 µM (inactive)
O=C(Nc1nc(-c2ccccn2)cs1)c1cc(Cl)ccc1[N+](=O)[O-]	9.95 µM
Cc1cc(C)c2nc(N3CCN(C(=O)c4ccco4)CC3)sc2c1	> 35 µM (inactive)
O=C(COc1ccccc1)N(Cc1cccc(F)c1)C1CCS(=O)(=O)C1 (stereo not drawn)	> 35 µM (inactive)
O=C(COC(=O)c1cccc(S(=O)(=O)N2CCOCC2)c1)Nc1ncc(C(F)(F)F)cc1Cl	> 35 µM (inactive)

Next, values leading:

EC50	Compound
> 35 µM (inactive)	COc1ccc(CCNC(=O)CSc2nc(-c3ccc(OC)c(OC)c3)ccc2C#N)cc1
5.97 µM	CCCC(=O)NC(c1ccccc1OC)c1ccc2cccnc2c1O (stereo not drawn)
> 35 µM (inactive)	Cc1ccc(C)c(-c2cc(C(=O)Nc3cccc(C(=O)O)c3)c3ccccc3n2)c1
3.16 µM	CCCCC(=O)NC(c1ccccc1Cl)c1ccc2cccnc2c1O (stereo not drawn)
> 35 µM (inactive)	COc1cc(SC)ccc1C(=O)NCCc1ccccc1
6.11 µM	CCC(=O)NC(c1ccccc1OC)c1ccc2cccnc2c1O (stereo not drawn)
35.2 µM	O=C(CCc1ccccc1)NC(c1cccs1)c1cc(Cl)c2cccnc2c1O (stereo not drawn)
> 35 µM (inactive)	C=C(C)Cn1c(CCNC(=O)C(C)C)nc2ccccc21
> 35 µM (inactive)	CC(C)COc1cccc(C(=O)NNC(=O)C2COc3ccccc3O2)c1 (stereo not drawn)
> 35 µM (inactive)	O=C(Cn1c(Cc2ccccc2)nc2ccccc21)NCc1ccc2c(c1)OCO2
0.629 µM	O=C(N/N=C(\c1ccccc1)c1ccccn1)c1cccc([N+](=O)[O-])c1
> 35 µM (inactive)	O=C(COC(=O)Cc1ccc(S(=O)(=O)N2CCCCC2)s1)Nc1ccc2c(c1)OCO2
8.15 µM	O=C(CN1CCCC1)N/N=C/c1c(O)ccc2ccccc12

Source: PubChem BioAssay AID434951 (Broad Institute, 2010)
